From patent US20190178889A1, “HIGH-THROUGHPUT SCREENING ASSAY” (BellBrook Labs, priority 2016, published 2019)
One block for each compound: values may come before it.

How the values were obtained:
cGAMP mAb6 = experiment: competitive FP immunoassay, cGAMP mAb6 with cGAMP-Atto 633 tracer; format: binding, mouse; details: for binding to mAb6: ATP and GTP at more than 10^4-fold excess over half-maximal cGAMP concentration
From the text: Importantly, neither of these other cyclic dinucleotides are known to be endogenous in mammalian cells.

[1] = tested on: mouse antiserum (cGAMP antibody); experiment: FP binding of mouse antiserum to fluorescein-cGAMP tracer with competitor nucleotides; details: competitor 10 μM, tracer 4 nM
full length human cGAS [2] = target: T1, full length human cGAS (Homo sapiens, UniProt Q8N884); experiment: cGAS enzyme assay with cGAMP FP detection; format: biochemical; design: Assays using highly purified, full length human cGAS were performed; 6xHis; made in house; host or cells: E. coli BL21 DE3 (Rosetta DE3, Novagen), T7 expression vector
Method: FIG. 9 includes A) a plot showing detection of purified, full-length cGAS: cGAS enzyme titrations show a dose-dependent assay signal, as discussed in more detail in Example 2, below; N- and C-terminal His-tagged cGAS was prepared according to Example 4 (100 μM ATP and GTP, 62.5 nM 45 bp ISD DNA, 60 min reactions); […]; C) Confirmation that recombinant hcGAS was activated by ds DNA; half maximal responses of 3.5 and 5.9 nM for HSV 60 and ISD 45, respectively; D) ATP and GTP dependence: ATP and GTP were titrated separately and simultaneously; half maximal cGAS activity at 80 μM of both nucleotide; E) Dose response for cGAS inhibition by two flavonoids; F) a plot showing the results of an interference screen: the library of 1280 pharmacologically active compounds, available from Sigma (the “LOPAC library”) was used to test for compound interference with detection reagents as discussed in more detail in Example 2, below; wells contained all cGAS enzyme reaction components except the cGAS enzyme; positive controls contained 1 μM cGAMP, negative controls contained no cGAMP; […]; negative controls lacked dsDNA required for cGAS activation; H) an image of a coomassie blue stained SDS gel (top) and western blot (bottom) of purified 6×HIS-cGAS (Lane 1) and cGAS-6×His (Lane 2) prepared according to Example 4; Z=0.62, Z′=0.7.
cGAS is one of four oligoadenylate synthases, nucleic acid sensors that activate innate immunity via production of short, 2′-5′ oligoadenylate secondary messengers (35); […]. Binding of dsDNA and DNA:RNA hybrids to cGAS induces a conformational transition in an activation loop, not unlike the displacement of inhibitory domains by autophosphorylation in protein kinases (Zhang, et al., 2014, Cell Rep 6(3):421-30; Fabbro, et al., 2012, Methods Mol Biol 795:1-34). The full-length enzyme was used to insure that all of the potential allosteric sites were present and that the enzyme was able to sample its full conformational repertoire. Prior to running cGAS enzyme reactions, the effect of cGAS reaction components, including ATP and GTP Brij 35, NaCl, Brij 35, and dsDNA on the detection reagents was examined; no significant effects were observed. Assays using highly purified, full length human cGAS were performed. The full-length human cGAS was prepared according to Example 4, below. Additionally, third-party-provided cGAS (Sun, et al., 2013, Science 339(6121):786-91) was used for comparative purposes. Some enzyme assays were run in kinetic mode; i.e., the detection reagents were present during the enzyme reactions, and the plates were read periodically, and others were run in endpoint mode, using EDTA to quench the reaction.
. The enzyme data was graphed as the net change in polarization; […]. Conversion of polarization to cGAMP formation using a standard curve confirmed that product formation was linear with cGAS concentration (FIG. 9B); […]. There was essentially no quantitative activity data available for cGAS prior to the instant disclosure and the kcat values of approximately 1 min^−1 determined herein (at non-saturating ATP and GTP) were the first reported cGAS kinetic parameters. The generation of a good signal (i.e., ≥100 mP) with less than 10 nM cGAS is important for two reasons. It reduces the time and cost to prepare for a large screen by minimizing enzyme usage; for example, screening 1M (one million) compounds at 10 nM cGAS will require only 12 mg of enzyme. […]

scFvs against haptens = details: affinity-matured scFvs, yeast display; read-out: Kds of scFvs; cited from earlier work
full length human cGAS [3] = target: T1, full length human cGAS; experiment: cGAS enzyme assay with cGAMP TR-FRET detection
[4] = both nucleotides combined (titrated simultaneously), read-out: half maximal concentration of ATP and GTP for cGAS activity

T1 sequence (Q8N884 whole entry): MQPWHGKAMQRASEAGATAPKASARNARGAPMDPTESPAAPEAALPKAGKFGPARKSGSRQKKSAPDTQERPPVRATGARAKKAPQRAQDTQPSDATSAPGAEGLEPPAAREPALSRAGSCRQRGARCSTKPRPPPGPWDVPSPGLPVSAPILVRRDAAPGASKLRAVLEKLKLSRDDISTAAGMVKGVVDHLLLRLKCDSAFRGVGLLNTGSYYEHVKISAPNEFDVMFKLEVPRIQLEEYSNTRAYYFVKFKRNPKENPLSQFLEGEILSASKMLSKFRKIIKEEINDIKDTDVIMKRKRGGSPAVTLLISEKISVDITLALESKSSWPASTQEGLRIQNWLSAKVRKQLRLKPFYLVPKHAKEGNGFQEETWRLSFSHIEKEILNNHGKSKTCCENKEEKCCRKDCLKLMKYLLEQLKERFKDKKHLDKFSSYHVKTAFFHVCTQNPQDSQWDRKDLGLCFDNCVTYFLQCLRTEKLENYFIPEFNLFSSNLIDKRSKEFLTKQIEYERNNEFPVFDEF

Compound: Nc1nc2c(ncn2[C@@H]2O[C@@H]3COP(=O)(O)O[C@H]4[C@@H](O)[C@H](n5cnc6c(N)ncnc65)O[C@@H]4COP(=O)(O)O[C@@H]2[C@@H]3O)c(=O)[nH]1 [2′,3′ cGAMP, G(2′-5′)pA(3′-5′)p]
polarization shift (cGAMP mAb6; at 500 nM cGAMP, 0.5-0.6 μg/ml mAb6): approximately 130 mP
effect of excess competitor on antiserum/tracer binding curve [1]: right-shifted by approximately two orders of magnitude

Compound: Nc1nc2c(ncn2C2OC3COP(=O)(O)OC4C(O)C(COP(=O)(O)OC3C2O)OC4n2cnc3c(=O)[nH]c(N)nc32)c(=O)[nH]1 (stereo not drawn) [2′,3′ cyclic di-GMP]
IC50 (cGAMP mAb6; FP competition curves, FIG. 8E, read-out: 1050 values (competition, displacement of tracer from mAb6)): 250 nM

Compound: Nc1nc2c(ncn2[C@@H]2O[C@@H]3COP(=O)(O)O[C@H]4[C@@H](O)[C@H](n5cnc6c(N)ncnc65)O[C@@H]4COP(=O)(O)O[C@H]3[C@H]2O)c(=O)[nH]1 [3′,3′ cGAMP]
binding to mAb6 (cGAMP mAb6; FP competition curves, FIG. 8E): did not bind

Compound: Nc1ncnc2c1ncn2[C@@H]1O[C@H](COP(=O)(O)OP(=O)(O)O)[C@@H](O)[C@H]1O [ADP]
binding to mAb6 (cGAMP mAb6; FP competition curves, FIG. 8E): lack of binding

Compound: Nc1ncnc2c1ncn2[C@@H]1O[C@H](COP(=O)(O)OP(=O)(O)OP(=O)(O)O)[C@@H](O)[C@H]1O [ATP]
binding to mAb6 (cGAMP mAb6; FP competition curves, FIG. 8E): no detectable binding
EC50 (full length human cGAS [2]; [4]): 80000 nM
effect of excess competitor on antiserum/tracer binding curve [1]: no effect

Compound: O=C(O)CN1CCN(CC(=O)O)CCN(CC(=O)O)CCN(CC(=O)O)CC1 [DOTA]
Kd (scFvs against haptens): 0.0082 nM

Compound: cGAS-His: full-length human cGAS having a 6×His at the C-terminus
Kcat (full length human cGAS [3]; determined by TR-FRET): 1.58
Kcat (full length human cGAS [2]; determined by FP): 1.21

The next lines start with results.

binding to mAb6 (cGAMP mAb6; FP competition curves, FIG. 8E): no detectable binding
EC50 (full length human cGAS [2]; [4]): 80000 nM
effect of excess competitor on antiserum/tracer binding curve [1]: no effect
Compound: Nc1nc2c(ncn2[C@@H]2O[C@H](COP(=O)(O)OP(=O)(O)OP(=O)(O)O)[C@@H](O)[C@H]2O)c(=O)[nH]1 [GTP]

binding to mAb6 (cGAMP mAb6; FP competition curves, FIG. 8E): lack of binding
Compound: Nc1nc2c(ncn2[C@@H]2O[C@@H]3COP(=O)(O)O[C@H]3[C@H]2O)c(=O)[nH]1 [cGMP]

EC50 (full length human cGAS [3]; read-out: EC50, cGAS enzyme titration, TR-FRET assay, FIG. 10E): ~5 nM
EC50 (full length human cGAS [2]; FP assay, depending on the preparation, 100 μM ATP and GTP, 62.5 nM 45 bp ISD DNA, 60 min, read-out: half-maximal change (EC50) of polarization, cGAS enzyme titration): 6 to 12 nM
Compound: cGAS: highly purified, full length human cyclic GMP-AMP synthase
Kcat (full length human cGAS [2]; cGAMP FP assay, non-saturating ATP and GTP): approximately 1 min^−1
